According to the NIST ThermoML archive (doi:10.1016/j.jct.2011.08.016):
± gives the expanded uncertainty stated by the source.

Assay: xn = mol fraction of the nth substance listed
Details: Liquid, Vibrating tube method

CCCCCCCCCC [decane] + CCCCCCC
mass density [kg/m3]
Details	x2 = 0.0531	x2 = 0.2594	x2 = 0.5219	x2 = 0.777	x2 = 0.952
343.09 K, 1000 kPa	690.42 ± 0.41	–	670.9 ± 0.42	656.56 ± 0.43	–
343.09 K, 2000 kPa	691.49 ± 0.42	–	672.01 ± 0.43	657.76 ± 0.43	–
343.09 K, 3000 kPa	692.55 ± 0.42	–	673.08 ± 0.43	658.95 ± 0.44	–
343.09 K, 4000 kPa	693.59 ± 0.43	–	674.15 ± 0.44	660.13 ± 0.45	–
343.09 K, 5000 kPa	694.62 ± 0.43	–	675.24 ± 0.44	661.28 ± 0.45	–
343.09 K, 6000 kPa	695.63 ± 0.44	–	676.3 ± 0.45	662.42 ± 0.46	–
343.09 K, 7000 kPa	696.62 ± 0.44	–	677.39 ± 0.45	663.56 ± 0.46	–
343.09 K, 8000 kPa	697.6 ± 0.45	–	678.46 ± 0.46	664.71 ± 0.47	–
343.09 K, 9000 kPa	698.57 ± 0.45	–	679.53 ± 0.47	665.84 ± 0.48	–
343.09 K, 10000 kPa	699.52 ± 0.46	–	680.57 ± 0.47	666.95 ± 0.48	–
343.09 K, 11000 kPa	700.46 ± 0.46	–	681.55 ± 0.48	668.04 ± 0.49	–
343.09 K, 12000 kPa	701.38 ± 0.47	–	682.56 ± 0.48	669.13 ± 0.5	–
343.09 K, 13000 kPa	702.3 ± 0.47	–	683.57 ± 0.49	670.2 ± 0.5	–
343.09 K, 14000 kPa	703.21 ± 0.48	–	684.56 ± 0.5	671.24 ± 0.51	–
343.09 K, 15000 kPa	704.09 ± 0.49	–	685.54 ± 0.5	672.27 ± 0.52	–
343.09 K, 16000 kPa	704.98 ± 0.49	–	686.5 ± 0.51	673.29 ± 0.53	–
343.09 K, 17000 kPa	705.84 ± 0.5	–	687.45 ± 0.52	674.28 ± 0.53	–
343.09 K, 18000 kPa	706.7 ± 0.5	–	688.39 ± 0.52	675.26 ± 0.54	–
343.09 K, 19000 kPa	707.54 ± 0.51	–	689.28 ± 0.53	676.22 ± 0.55	–
343.09 K, 20000 kPa	708.37 ± 0.52	–	690.16 ± 0.54	677.14 ± 0.55	–
343.09 K, 21000 kPa	709.2 ± 0.52	–	691.02 ± 0.55	678.06 ± 0.56	–
343.09 K, 22000 kPa	710 ± 0.53	–	691.87 ± 0.55	678.95 ± 0.57	–
343.09 K, 23000 kPa	710.8 ± 0.54	–	692.69 ± 0.56	679.82 ± 0.58	–
343.09 K, 24000 kPa	711.58 ± 0.54	–	693.49 ± 0.57	680.67 ± 0.59	–
343.09 K, 25000 kPa	712.36 ± 0.55	–	694.29 ± 0.57	681.49 ± 0.59	–
343.11 K, 1000 kPa	–	682.79 ± 0.42	–	–	645.16 ± 0.43
343.11 K, 2000 kPa	–	683.83 ± 0.42	–	–	646.47 ± 0.44
343.11 K, 3000 kPa	–	684.89 ± 0.43	–	–	647.73 ± 0.45
343.11 K, 4000 kPa	–	685.87 ± 0.43	–	–	649 ± 0.45
343.11 K, 5000 kPa	–	686.9 ± 0.44	–	–	650.27 ± 0.46
343.11 K, 6000 kPa	–	687.93 ± 0.44	–	–	651.49 ± 0.46
343.11 K, 7000 kPa	–	688.92 ± 0.45	–	–	652.71 ± 0.47
343.11 K, 8000 kPa	–	689.92 ± 0.45	–	–	653.91 ± 0.48
343.11 K, 9000 kPa	–	690.94 ± 0.46	–	–	655.08 ± 0.48
